Assay results reported in patent US7781469B2, “Arylacetate derivatives having isoxazole skeleton” (Shionogi & Co., Ltd., priority 2005, dated 2010).

How the values were obtained:
human PPARδ (hPPARδ) = target: T1, human PPARδ (hPPARδ) (Homo sapiens, UniProt Q03181); assay: Test for transcriptional activity of PPARδ (GAL4 chimeric transcription factor luciferase reporter assay in CHO cells); type: cell-based; details: concentration showing 1/2 of maximum luciferase activity
T1 construct: (δ: aa 139-C-end; α: aa 167-C-end); expressed in transfected cells
T1 sequence (Q03181 139-441 limits assumed): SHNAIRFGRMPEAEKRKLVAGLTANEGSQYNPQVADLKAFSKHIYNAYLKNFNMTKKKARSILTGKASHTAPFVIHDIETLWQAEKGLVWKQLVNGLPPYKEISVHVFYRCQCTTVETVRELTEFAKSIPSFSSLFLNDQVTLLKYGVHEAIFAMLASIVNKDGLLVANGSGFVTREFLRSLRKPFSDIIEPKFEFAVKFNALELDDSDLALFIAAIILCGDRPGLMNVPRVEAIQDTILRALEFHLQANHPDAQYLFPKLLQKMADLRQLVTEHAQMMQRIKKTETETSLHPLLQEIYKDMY
Source text: Test Example 1 Test for Transcriptional Activity of PPARδ and α
A chimeric transcription factor assay, which is commonly used to detect nuclear receptor activity, was employed to measure PPAR transcriptional activity. Specifically, two plasmids, one that expresses the fusion protein of DNA binding domain of yeast transcription factor GAL4 and a ligand binding domain of a receptor, and a reporter plasmid were transiently transfected to CHO cells. The activity of the promoter containing a recognition sequence of GAL4 coded on the reporter plasmid was used as a parameter to estimate the activity of the receptor. • Plasmid: The ligand binding domain of human PPARδ (hPPARδ) or α (hPPARα) (δ: aa 139-C-end; α: aa 167-C-end) is obtained by PCR amplification using Human Universal Quick-Clone cDNA (CLONTECH). Each amplified cDNA was subcloned into pCR2.1-TOPO vector (Invitrogen) and the identity of the cDNA clones was confirmed by the DNA sequence. Then, each obtained cDNA fragment was subcloned into pBIND vector (Promega) to construct a plasmid expressing the fusion protein with DNA binding domain of yeast transcription factor GAL4. pG51uc vector (Promega) was used as a reporter plasmid. • Cell culturing and transfection: CHO cells were cultured in 10% FBS-αMEM. With a 96-well plate (Costar), CHO cells, that were dispersed with trypsin treatment, 20000 cells per well and the two plasmids obtained by the above procedure, 25 ng per well, were transfected with FuGene Reagent (Roche) by following the instruction of the manufacture. • Measurement of the transcriptional activity: CHO cells 100 μl per well, which were transfected as above, were dispensed into the wells in which a test compound dissolved in DMSO 0.5 μl was spotted in advance. After the cells and a test compound were cultured together for 24 hours in a CO2 incubator, the luciferase activity was measured by adding luciferase substrates, PicaGene LT2.0 (Toyo ink) 100 μl per well. LUMINOUS CT-9000D (DIA-IATRON) is used to measure the activity.

O=C(O)Cc1cccc(SCc2noc(-c3ccc(C(F)(F)F)cc3)c2C=NOCCF)c1 [X-6, {3-[4-(2-Fluoroethoxyiminomethyl)-5-(4-trifluoromethylphenyl)isoxazole-3-ylmethylsulfanyl]phenyl}acetic acid]
EC50 (human PPARδ (hPPARδ)): 9.8 nM

CCON=Cc1c(CSc2cc(CC(=O)O)ccc2F)noc1-c1ccc(C(F)(F)F)cc1 [X-8]
EC50 (human PPARδ (hPPARδ)): 9.8 nM

CCON=Cc1c(CSc2cccc(CC(=O)O)c2)noc1-c1ccc(C(F)(F)F)cc1 [X-25]
EC50 (human PPARδ (hPPARδ)): 12 nM
melting point: 131 to 133 °C
